The results in this text go back to ChEMBL document CHEMBL3259523, “Triazolo[4,5-d]pyrimidine Derivatives as Inhibitors of GCN2” (ACS Med Chem Lett, 2014).

SMILES strings stand for the structures.

The target of assay [1] is T1, eIF-2-alpha kinase GCN2 (Homo sapiens, UniProt Q9P2K8). The assay is described as follows: Inhibition of GCN2 (unknown origin) using GFP-elF2a as substrate preincubated with substrate for 20 mins measured after 90 mins by Lanthascreen assay. A general note: In TR-FRET formats the signal depends on donor and acceptor labels being close together.
Assay [2] concerns the target T1, eIF-2-alpha kinase GCN2. Description: Inhibition of GCN2-mediated elF2alpha phosphorylation in human U2OS cells after 2 hrs by immunocytochemistry. Format: cell-based.

T1 sequence (Q9P2K8 whole entry): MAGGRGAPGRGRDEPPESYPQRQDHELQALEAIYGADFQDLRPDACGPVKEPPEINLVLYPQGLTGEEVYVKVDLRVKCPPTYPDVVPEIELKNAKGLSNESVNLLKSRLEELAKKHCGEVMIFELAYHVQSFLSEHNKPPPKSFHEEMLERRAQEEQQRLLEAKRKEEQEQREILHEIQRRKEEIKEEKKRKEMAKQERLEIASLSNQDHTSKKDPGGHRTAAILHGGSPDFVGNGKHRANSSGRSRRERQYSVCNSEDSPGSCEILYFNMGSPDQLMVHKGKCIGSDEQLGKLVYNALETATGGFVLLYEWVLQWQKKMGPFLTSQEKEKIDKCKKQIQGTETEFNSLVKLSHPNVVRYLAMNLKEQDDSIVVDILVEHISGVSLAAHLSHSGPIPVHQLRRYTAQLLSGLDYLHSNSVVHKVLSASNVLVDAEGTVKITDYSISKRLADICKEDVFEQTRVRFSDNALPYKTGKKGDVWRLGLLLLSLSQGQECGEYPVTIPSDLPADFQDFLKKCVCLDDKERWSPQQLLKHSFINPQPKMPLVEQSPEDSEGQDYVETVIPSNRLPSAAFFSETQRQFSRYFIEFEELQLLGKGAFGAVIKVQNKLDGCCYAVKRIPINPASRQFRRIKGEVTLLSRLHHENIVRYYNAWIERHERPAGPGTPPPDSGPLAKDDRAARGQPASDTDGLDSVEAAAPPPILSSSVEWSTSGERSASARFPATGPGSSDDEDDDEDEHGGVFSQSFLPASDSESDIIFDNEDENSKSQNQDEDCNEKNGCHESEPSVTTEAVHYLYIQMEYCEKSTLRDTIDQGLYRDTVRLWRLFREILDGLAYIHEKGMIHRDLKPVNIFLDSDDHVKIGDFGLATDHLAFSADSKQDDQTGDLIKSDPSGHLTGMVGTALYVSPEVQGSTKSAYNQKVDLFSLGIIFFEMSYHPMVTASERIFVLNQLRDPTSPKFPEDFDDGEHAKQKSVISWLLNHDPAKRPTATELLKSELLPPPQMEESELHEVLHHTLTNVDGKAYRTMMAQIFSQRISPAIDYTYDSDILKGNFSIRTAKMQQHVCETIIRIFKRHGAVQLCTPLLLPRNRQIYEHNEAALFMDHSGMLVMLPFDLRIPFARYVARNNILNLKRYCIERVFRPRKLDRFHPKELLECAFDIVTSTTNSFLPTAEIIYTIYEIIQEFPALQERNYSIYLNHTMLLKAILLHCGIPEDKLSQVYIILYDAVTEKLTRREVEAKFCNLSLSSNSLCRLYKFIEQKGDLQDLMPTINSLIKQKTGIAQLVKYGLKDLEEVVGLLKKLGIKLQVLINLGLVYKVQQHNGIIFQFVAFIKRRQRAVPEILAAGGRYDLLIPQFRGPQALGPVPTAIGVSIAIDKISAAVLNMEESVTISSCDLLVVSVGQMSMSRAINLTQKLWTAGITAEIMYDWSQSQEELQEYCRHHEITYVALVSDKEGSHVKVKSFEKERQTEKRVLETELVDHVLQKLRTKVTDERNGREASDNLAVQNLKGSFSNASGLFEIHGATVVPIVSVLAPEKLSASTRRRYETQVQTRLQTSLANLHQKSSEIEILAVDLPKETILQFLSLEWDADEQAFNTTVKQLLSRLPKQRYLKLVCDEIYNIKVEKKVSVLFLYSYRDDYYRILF

The term IC50 denotes the point on the concentration scale where inhibition reaches its midpoint. Lower therefore signals greater potency in that assay. On to `O[C@H]1CC[C@H](n2ccc(Nc3ncc4c(nnn4-c4ccc(Cl)c(F)c4)n3)n2)CC1`, for which the concentration for half-maximal inhibition (IC50) at eIF-2-alpha kinase GCN2 [1] and against eIF-2-alpha kinase GCN2 [2] was under 0.3 µM in each case.

On to `CCn1ccc(Nc2ncc3c(nnn3-c3ccc(C(C)(C)OCCO)cc3)n2)n1`, for which the results for the half-inhibitory concentration (IC50) against eIF-2-alpha kinase GCN2 [1] and at eIF-2-alpha kinase GCN2 [2] were under 0.3 µM and 0.3 µM, respectively.

As for `c1cc2cn[nH]c2cc1-n1nnc2nc(Nc3ccn(C4CCOCC4)n3)ncc21`, the concentration for half-maximal inhibition (IC50) at eIF-2-alpha kinase GCN2 [1] and at eIF-2-alpha kinase GCN2 [2] was under 0.3 µM in each case.

Regarding `CCOc1ccc(-n2nnc3nc(Nc4ccn(CCCC5CCNCC5)n4)ncc32)cc1`, the half-inhibitory concentration (IC50) on eIF-2-alpha kinase GCN2 [1] and at eIF-2-alpha kinase GCN2 [2] was under 0.3 µM throughout.
